Our source for the activation values is patent publication US10941143B2, “Imidazo [1,5-a]pyridine compounds and their use” (Alterity Therapeutics Limited, priority 2019, dated 2021).

The test system of the test is human neuroblastoma line BE(2)-M17 (M17) cells. As to the kind of experiment: Measurement of Fe efflux from cells. In kind it is cell-based. To be noted: M17 cells pre-loaded with 57Fe, compound 20 μM for 2 h, percentage increase of Fe in media relative to media without compound, read-out: % Fe Efflux Range. On the procedure: Method I: Measurement of Fe Efflux from Cells
Compounds of the current invention were assessed for their ability to efflux iron (Fe) from a cell using the following protocol.
The human neuroblastoma line BE(2)-M17 (M17) cell cultures were acquired from Sigma Aldrich (Catalogue #: 95011816). M17 Cells were maintained in Opti-MEM reduced serum media supplemented with 10% fetal bovine serum (Bovogen, SFBSF) and passaged twice weekly. Cells were cultured at 37° C. in the presence of 5% CO2. Culture supplies were sourced from Thermo Fisher unless otherwise stated.
A solution of ^57Fe cold isotope was prepared by dissolving ^57Fe metal (>95% enrichment, Trace Sciences International) in concentrated HCl to give a final concentration of 573 mM. From this master solution, a 10 mM working solution was prepared in sterile water. The working solution was used within two months of preparation.
M17 cells were loaded with iron initially by seeding into 48-well plates at a density of 0.15×10^6 cells per well in 0.5 mL media. After 48 h, old media was discarded. Fresh media was supplemented with 20 μM ^57Fe isotope, from the 10 mM ^57Fe working solution. Cells received 0.2 mL of this ^57Fe enriched media and were returned to the incubator for 20 h. The ability of experimental compounds to efflux iron was determined by the dissolution of compounds in DMSO and diluted in Hanks' Balanced Salt Solution (HBSS) for treatment of M17 cells. After ^57Fe incubation, cells were rinsed twice with HBSS and treated with 0.15 mL trial compound for 2 h at a concentration of 20 μM. All assays included a relevant vehicle (0.4%-0.8% DMSO) as well as a positive control (20 μM). Following the treatment period, 0.1 mL of media was collected from cells and the extracellular ^57Fe content was analysed via inductively coupled mass spectrometry (ICP-MS, Agilent 7700x series instrument).
To perform this protocol the following supplies were purchased from Sigma Aldrich: anhydrous dimethyl sulfoxide (DMSO, Catalogue #: 276855), Hanks' Balanced Salt Solution supplemented with 20 mM HEPES and 4.2 mM Sodium Bicarbonate (HBSS, pH: 7.4, Catalogue #: H1387).
After 2 h the Fe levels in the media were measured and the increase determined as a percentage increase relative to the cell media in the absence of the compound.

For `Oc1ccncc1-c1nc(-c2c(O)cccc2F)n2ccccc12` [Compound 161], the activation at 20 µM lay within 30 to 100%.
As to `Oc1ccccc1-c1nc(-c2ccccc2O)n2ncccc12` [Compound 102, 2,2′-(Imidazo[1,5-b]pyridazine-5,7-diyl)diphenol], the activation at 20 µM is less than 30%.
Regarding `Oc1cnccc1-c1nc(-c2cc(F)cc(F)c2O)n2ccccc12` [Compound 114, 4-(3-(3,5-Difluoro-2-hydroxyphenyl)imidazo[1,5-a]pyridin-1-yl)pyridin-3-ol], the activation at 20 µM was 100 to 150%.
For `COc1cccnc1-c1nc(-c2cc(Cl)cc(Cl)c2O)n2ccccc12` [Compound 59] the value was less than 30%; for `Cc1ccc(O)c(-c2nc(-c3ccccc3O)c3ccccn23)c1` [Compound 17], less than 30%.
`CN(C)Cc1cccc(-c2nc(-c3ccccc3O)c3ccccn23)c1O` [Compound 124, 2-((Dimethylamino)methyl)-6-(1-(2-hydroxyphenyl)imidazo[1,5-a]pyridin-3-yl)phenol]: the activation at 20 µM was greater than 150%.
To `Oc1ncccc1-c1nc(-c2cc(F)cc(F)c2O)n2ccccc12` [Compound 145] belongs 100 to 150%.
In the case of `Cc1ccc(O)c(-c2nc(-c3cccnc3O)c3ccccn23)c1` [Compound 147, 3-(3-(2-Hydroxy-5-methylphenyl)imidazo[1,5-a]pyridin-1-yl)pyridin-2-ol], the activation at 20 µM fell in the range of 100 to 150%.
For `Oc1cccnc1-c1nc(-c2cccc(Cl)c2O)n2ccccc12` [Compound 82], the activation at 20 µM lay in the range of 30 to 100%.
Consider `O=[N+]([O-])c1ccccc1-c1nc(-c2ccccc2O)c2ccccn12` [Compound 77], for which the activation at 20 µM was less than 30%.
Consider `Oc1c(F)cccc1-c1nc(-c2cccc(F)c2O)n2ccccc12` [Compound 40], for which the activation at 20 µM was 30 to 100%.
As to `COc1ccncc1-c1nc(-c2cc(F)ccc2O)n2ccccc12` [Compound 154], the activation at 20 µM was less than 30%.
Take `Oc1ccccc1-c1nc(-c2cccc(F)c2O)n2ncccc12` [Compound 103]: the activation at 20 µM fell in the range of 30 to 100%.
To `Oc1cccnc1-c1nc(-c2cccc(F)c2O)n2ccccc12` [Compound 81, 2-(3-(3-Fluoro-2-hydroxyphenyl)imidazo[1,5-a]pyridin-1-yl)pyridin-3-ol] belongs greater than 150%; to `Oc1c(F)cc(F)cc1-c1nc(-c2cccc(Br)c2O)c2ccccn12` [Compound 33], less than 30%; to `Oc1ccccc1-c1nc(-c2ncccc2O)c2ccccn12` [Compound 4, 2-(3-(2-Hydroxyphenyl)imidazo[1,5-a]pyridin-1-yl)pyridin-3-ol], greater than 150%.
For `Oc1ccccc1-c1nc(-c2cccc(Cl)c2O)n2ncccc12` [Compound 104] the value was less than 30%.
